The record followed here is patent US20190101551A1, “Real-time and Continuous Measurement in Vivo Using Aptamer-Based Biosensors” (The Regents of the University of California, priority 2016, published 2019).

Data set [1] can be described thus: in vivo. Particulars: male, Sprague-Dawley, rat.
Experimental: (§1) All in vivo measurements were performed using a two-electrode setup in which the reference and counter electrodes were a silver wire coated with a silver chloride film as described above. The measurements carried out in vivo were recorded using a handheld potentiostat.
(§2) In vivo Experiments Animals. Adult male Sprague-Dawley rats (300-500 g) were pair housed in a temperature and humidity controlled vivarium on a 12-h light-dark cycle and provided ad libitum access to food and water. All animal procedures were consistent with the guidelines of the NIH Guide for Care and Use of Laboratory Animals.
(§3) Surgery. For the anesthetized preparation, rats were anesthetized using isoflurane gas inhalation (2.5%) and monitored throughout the experiment using a pulse oximeter to measure heart rate and % SpO2 to insure depth of anesthesia. After exposing both ventral jugular veins, a simple catheter made from a [sequence] tube (Dow Corning, Midland, Mich., USA) fitted with a steel cannula was implanted into the left jugular vein. 0.1-0.3 mL of heparin (1000 U/mL) were immediately infused through the catheter to prevent blood clotting. The sensor was inserted into the right jugular vein and secured in place with surgical suture.
(§4) Measurements. A 30-minute sensor baseline was established before the first drug infusion. For anesthetized animals, a 3 mL syringe filled with the target drug was connected to the sensor-free catheter (placed in the jugular opposite that in which the sensor is emplaced) and placed in a motorized syringe pump. After establishing a stable baseline, the target drug was infused through this catheter at a rate of 0.2 mL/min. Target drugs included kanamycin (0.1 M solution), gentamicin (10 mg/mL), tobramycin (0.1 M solution), and doxorubicin (1.0 mM). After drug infusion, recordings were taken for up to 2 hours before the next infusion.
(§5) Sensors were fabricated using an aptamer recognizing the aminoglycoside antibiotics. Using these sensors, monotonically increasing intravenous doses of kanamycin were administered spanning the therapeutic ranges used in humans (10-30 mg/kg) and animals (25-30 mg/kg).
(§6) The pharmacokinetics of tobramycin were monitored following sequential 20 mg/kg intravenous injections conducted 2 hours apart in each of three rats.
Data set [2] in a line: Continuous real-time in vivo measurement of drug levels in blood with membrane-protected EAB sensors in the jugular vein of rats. Particulars: anesthetized Sprague-Dawley rats, after each injection.
Experimental: as §1, §2, §3, §4, §5, §6
For data set [3] the following is noted: male, Sprague-Dawley, rat, in vivo, iv.
Experimental: as §1, §2, §3, §4, §5, §6

Molecules are shown by their SMILES.

For `COc1cccc2c1C(=O)c1c(O)c3c(c(O)c1C2=O)C[C@@](O)(C(=O)CO)C[C@@H]3O[C@H]1C[C@H](N)[C@H](O)[C@H](C)O1` [DOX, doxorubicin], in data set [1], the Cmax was about 600 nM. For the same compound, in data set [2], the “time to effective clearance of 90% of the drug from the circulatory system” value is at most 50 min.

`NC[C@H]1O[C@H](O[C@H]2[C@H](O)[C@@H](O[C@H]3O[C@H](CO)[C@@H](O)[C@H](N)[C@H]3O)[C@H](N)C[C@@H]2N)[C@H](O)[C@@H](O)[C@@H]1O` [kanamycin]: the “maximum concentrations depending on the delivered dose” value in data set [3] lay within 34 to 400 µM. This compound also registered a maximum concentration observed in data set [3] (10 mg/kg) of 200 µM.
